From ChEMBL document CHEMBL5727076, “GDF-8 inhibitors” (2018)

Legend:
TGF-beta receptor type-1 = TGF-beta receptor type-1 (Homo sapiens, UniProt P36897, T204D); assay: The reaction is incubated for 1 hour at room temperature and the HTRF signal was measured on an Envision plate reader (Ex: 340 nm; Em: 520 nm/495 nm). Inhibition data were calculated by comparison to no enzyme control reactions for 100% inhibition and vehicle-only reactions for 0% inhibition. The final concentration of reagents in the assay are 1 nM HIS-TGFβR1 T204D or HIS-TGFβR2 WT, 0.2 nM anti-HIS detection antibody, labeled small molecule probe (at Kd) and 0.5% DMSO. Dose response curves were generated to determine the concentration required inhibiting 50% of kinase activity (IC50). Compounds were dissolved at 10 mM in dimethylsulfoxide (DMSO) and evaluated at eleven concentrations.
Chain of TGF-beta receptor type-1 (P36897 34-503 T204D limits assumed): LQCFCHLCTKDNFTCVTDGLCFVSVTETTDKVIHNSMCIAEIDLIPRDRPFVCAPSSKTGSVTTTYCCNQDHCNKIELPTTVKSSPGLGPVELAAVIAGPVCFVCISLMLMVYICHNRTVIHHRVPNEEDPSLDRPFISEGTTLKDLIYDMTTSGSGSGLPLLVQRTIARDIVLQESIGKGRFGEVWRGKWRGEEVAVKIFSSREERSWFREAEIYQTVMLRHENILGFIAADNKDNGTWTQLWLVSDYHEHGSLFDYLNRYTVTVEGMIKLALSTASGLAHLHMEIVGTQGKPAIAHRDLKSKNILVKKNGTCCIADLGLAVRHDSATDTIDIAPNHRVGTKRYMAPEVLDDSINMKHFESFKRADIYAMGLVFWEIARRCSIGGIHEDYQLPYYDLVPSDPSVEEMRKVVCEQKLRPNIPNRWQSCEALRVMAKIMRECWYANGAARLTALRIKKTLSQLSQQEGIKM

TGF-beta receptor type-2 = TGF-beta receptor type-2 (Homo sapiens, UniProt P37173); assay: Compounds were dissolved at 10 mM in dimethylsulfoxide (DMSO) and evaluated at eleven concentrations.
Chain of TGF-beta receptor type-2 (P37173 whole entry): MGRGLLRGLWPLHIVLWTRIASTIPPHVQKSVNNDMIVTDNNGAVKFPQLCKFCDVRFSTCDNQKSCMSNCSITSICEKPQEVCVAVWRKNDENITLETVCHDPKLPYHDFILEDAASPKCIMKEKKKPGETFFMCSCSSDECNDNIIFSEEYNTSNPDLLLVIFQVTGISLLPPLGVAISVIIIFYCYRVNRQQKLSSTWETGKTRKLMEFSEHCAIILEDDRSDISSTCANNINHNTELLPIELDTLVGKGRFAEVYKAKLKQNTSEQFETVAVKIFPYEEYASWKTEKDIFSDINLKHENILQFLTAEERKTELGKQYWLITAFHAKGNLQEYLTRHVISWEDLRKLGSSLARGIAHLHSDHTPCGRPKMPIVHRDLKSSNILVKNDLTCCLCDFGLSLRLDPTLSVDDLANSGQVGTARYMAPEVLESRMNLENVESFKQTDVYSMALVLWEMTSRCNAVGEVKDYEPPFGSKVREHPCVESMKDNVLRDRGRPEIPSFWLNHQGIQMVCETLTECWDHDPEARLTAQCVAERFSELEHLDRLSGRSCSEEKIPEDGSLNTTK

| IC50 (TGF-beta receptor type-1) [nM] | IC50 (TGF-beta receptor type-2) [nM] | SMILES |
| --- | --- | --- |
| 4 | – | Cc1cccc(-c2ncccc2-c2ccc3ncc(C(=O)O)n3c2)n1 |
| 2 | > 15000 | CNC(=O)c1cnc2ccc(-c3cccnc3-c3cccc(C)n3)cn12 |
| 11 | > 15000 | N#Cc1cnc2ccc(-c3cccnc3-c3cccc(C(F)(F)F)n3)cn12 |
| 6 | > 15000 | Cc1cccc(-c2ncccc2-c2ccn3ncc(C(N)=O)c3n2)n1 |
